Measurements from the supplement of paper PMC10307832.

Experiments:
Assay in all cases: relative viability (nuclei count vs DMSO), 5 days (fraction); higher = more cells survive
[1] = tested on: NCI-H522
How it was run: (§1)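 Relative viability is defined as nuclei in treated wells over nuclei in vehicle wells. Duplicate plates were run and medians reported. Lung cancer cell lines in 1536-well plates were dosed by pin tool one day after seeding, with one drug or with a fixed anchor-drug dose plus five library-drug doses (not always all listed) in √10 steps, and nuclei were counted after 5 days.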

[2] = tested on: NCI-H1623
How it was run: as §1

[3] = tested on: NCI-H520
How it was run: as §1

[4] = tested on: NCI-H1651
How it was run: as §1

[5] = tested on: RERF-LC-KJ
How it was run: as §1

[6] = tested on: NCI-H1299
How it was run: as §1

[7] = tested on: EBC-1
How it was run: as §1

[8] = tested on: A549
How it was run: as §1

[9] = tested on: NCI-H1703
How it was run: as §1

[10] = tested on: IA-LM
How it was run: as §1

[11] = tested on: NCI-H1648
How it was run: as §1

[12] = tested on: Calu-6
How it was run: as §1

NC(=O)Nc1cc(-c2cccc(F)c2)sc1C(=O)N[C@H]1CCCNC1 [AZD7762] + CCNC(=O)c1noc(-c2cc(C(C)C)c(O)cc2O)c1-c1ccc(CN2CCOCC2)cc1 [Luminespib] (partner 0.01 µM)
relative viability ([1]; first compound 0.01 µM): 1.14 | relative viability ([1]; first compound 0.03162 µM): 1.23 | relative viability ([1]; first compound 0.1 µM): 1.14 | relative viability ([1]; first compound 0.3162 µM): 1.35 | relative viability ([1]; first compound 1 µM): 1 | relative viability ([2]; first compound 0.01 µM): 0.421 | relative viability ([2]; first compound 0.03162 µM): 0.591 | relative viability ([2]; first compound 0.1 µM): 0.602 | relative viability ([2]; first compound 0.3162 µM): 0.604 | relative viability ([2]; first compound 1 µM): 0.418 | relative viability ([3]; first compound 0.01 µM): 0.208 | relative viability ([3]; first compound 0.03162 µM): 0.191 | relative viability ([3]; first compound 0.1 µM): 0.238 | relative viability ([3]; first compound 0.3162 µM): 0.254 | relative viability ([3]; first compound 1 µM): 0.234 | relative viability ([4]; first compound 0.01 µM): 0.98 | relative viability ([4]; first compound 0.03162 µM): 0.872 | relative viability ([4]; first compound 0.1 µM): 0.802 | relative viability ([4]; first compound 0.3162 µM): 0.487 | relative viability ([4]; first compound 1 µM): 0.215 | relative viability ([5]; first compound 0.01 µM): 1.41 | relative viability ([5]; first compound 0.03162 µM): 1.38 | relative viability ([5]; first compound 0.1 µM): 1.21 | relative viability ([5]; first compound 0.3162 µM): 1.2 | relative viability ([5]; first compound 1 µM): 1.02

NC(=O)Nc1cc(-c2cccc(F)c2)sc1C(=O)N[C@H]1CCCNC1 [AZD7762] + Cc1nc(Nc2ncc(C(=O)Nc3c(C)cccc3Cl)s2)cc(N2CCN(CCO)CC2)n1 [Dasatinib] (partner 0.075 µM)
relative viability ([1]; first compound 0.01 µM): 0.923 | relative viability ([1]; first compound 0.03162 µM): 0.919 | relative viability ([1]; first compound 0.1 µM): 0.76 | relative viability ([1]; first compound 0.3162 µM): 0.933 | relative viability ([1]; first compound 1 µM): 0.946 | relative viability ([2]; first compound 0.01 µM): 0.471 | relative viability ([2]; first compound 0.03162 µM): 0.558 | relative viability ([2]; first compound 0.1 µM): 0.615 | relative viability ([2]; first compound 0.3162 µM): 0.482 | relative viability ([2]; first compound 1 µM): 0.482 | relative viability ([3]; first compound 0.01 µM): 0.212 | relative viability ([3]; first compound 0.03162 µM): 0.18 | relative viability ([3]; first compound 0.1 µM): 0.192 | relative viability ([3]; first compound 0.3162 µM): 0.16 | relative viability ([3]; first compound 1 µM): 0.189 | relative viability ([4]; first compound 0.01 µM): 0.375 | relative viability ([4]; first compound 0.03162 µM): 0.358 | relative viability ([4]; first compound 0.1 µM): 0.386 | relative viability ([4]; first compound 0.3162 µM): 0.22 | relative viability ([4]; first compound 1 µM): 0.174 | relative viability ([5]; first compound 0.01 µM): 0.847 | relative viability ([5]; first compound 0.03162 µM): 0.896 | relative viability ([5]; first compound 0.1 µM): 0.858 | relative viability ([5]; first compound 0.3162 µM): 0.782 | relative viability ([5]; first compound 1 µM): 0.563

NC(=O)Nc1cc(-c2cccc(F)c2)sc1C(=O)N[C@H]1CCCNC1 [AZD7762] + O=C(c1cc(Cc2n[nH]c(=O)c3ccccc23)ccc1F)N1CCN(C(=O)C2CC2)CC1 [Olaparib] (partner 8 µM)
relative viability ([6]; first compound 0.01 µM): 1.02 | relative viability ([6]; first compound 0.03162 µM): 1 | relative viability ([6]; first compound 0.1 µM): 0.954 | relative viability ([6]; first compound 0.3162 µM): 0.688 | relative viability ([6]; first compound 1 µM): 0.312 | relative viability ([7]; first compound 0.01 µM): 0.848 | relative viability ([7]; first compound 0.03162 µM): 0.915 | relative viability ([7]; first compound 0.1 µM): 0.872 | relative viability ([7]; first compound 0.3162 µM): 0.717 | relative viability ([7]; first compound 1 µM): 0.451 | relative viability ([1]; first compound 0.01 µM): 0.711 | relative viability ([1]; first compound 0.03162 µM): 0.631 | relative viability ([1]; first compound 0.1 µM): 0.676 | relative viability ([1]; first compound 0.3162 µM): 0.59 | relative viability ([1]; first compound 1 µM): 0.632 | relative viability ([8]; first compound 0.01 µM): 0.37 | relative viability ([8]; first compound 0.03162 µM): 0.387 | relative viability ([8]; first compound 0.1 µM): 0.381 | relative viability ([8]; first compound 0.3162 µM): 0.481 | relative viability ([8]; first compound 1 µM): 0.155 | relative viability ([9]; first compound 0.01 µM): 0.305 | relative viability ([9]; first compound 0.03162 µM): 0.214 | relative viability ([9]; first compound 0.1 µM): 0.206 | relative viability ([9]; first compound 0.3162 µM): 0.168 | relative viability ([9]; first compound 1 µM): 0.12 | relative viability ([3]; first compound 0.01 µM): 0.367 | relative viability ([3]; first compound 0.03162 µM): 0.364 | relative viability ([3]; first compound 0.1 µM): 0.27 | relative viability ([3]; first compound 0.3162 µM): 0.223 | relative viability ([3]; first compound 1 µM): 0.194 | relative viability ([4]; first compound 0.01 µM): 0.184 | relative viability ([4]; first compound 0.03162 µM): 0.202 | relative viability ([4]; first compound 0.1 µM): 0.156 | relative viability ([4]; first compound 0.3162 µM): 0.153 | relative viability ([4]; first compound 1 µM): 0.137 | relative viability ([10]; first compound 0.01 µM): 1.07 | relative viability ([10]; first compound 0.03162 µM): 0.796 | relative viability ([10]; first compound 0.1 µM): 0.891 | relative viability ([10]; first compound 0.3162 µM): 0.655 | relative viability ([10]; first compound 1 µM): 0.171 | relative viability ([11]; first compound 0.01 µM): 0.639 | relative viability ([11]; first compound 0.03162 µM): 0.994 | relative viability ([11]; first compound 0.1 µM): 0.751 | relative viability ([11]; first compound 0.3162 µM): 0.934 | relative viability ([11]; first compound 1 µM): 0.61 | relative viability ([12]; first compound 0.01 µM): 0.636 | relative viability ([12]; first compound 0.03162 µM): 0.47 | relative viability ([12]; first compound 0.1 µM): 0.375 | relative viability ([12]; first compound 0.3162 µM): 0.166 | relative viability ([12]; first compound 1 µM): 0.109 | relative viability ([5]; first compound 0.01 µM): 0.928 | relative viability ([5]; first compound 0.03162 µM): 0.922 | relative viability ([5]; first compound 0.1 µM): 1.01 | relative viability ([5]; first compound 0.3162 µM): 0.893 | relative viability ([5]; first compound 1 µM): 0.65
